One experiment relates to human-type OT7T022. Nature of the experiment: Binding inhibiting activity using human-type OT7T022-expressing CHO cell membrane fraction and 125I-labeled Y-RFRP-3. As to conditions: human-type OT7T022-expressing CHO cell membrane fraction 1 µg; 125I-labeled Y-RFRP-3 100 pM; room temperature 1.5 hours; read-out: IC50 value (binding inhibiting rate). Here is the method: Assessment of binding inhibiting activity of test compound using human-type OT7T022-expressing CHO cell
(1) Preparation of iodine-labeled entity of human-type RFRP-3 (Y-RFRP-3)
A part thereof was 1/100 diluted, radioactivity was measured with a γ-counter, and the remaining authentic product was distributed, which was stored at -30°C.
(2) Assessment of binding inhibiting activity
To a 96-well microplate were added 1 µg of a membrane fraction, a compound and Y-RFRP-3 labeled with ^125I, which had been diluted with a reaction buffer (50 mM Tris-HCl, 5 mM EDTA, 0.1% BSA, 0.5 mM PMSF, 20 µg/ml leupeptin, 0.1 µg/ml pepstatin A, 4 µg/ml E-64, 10 mM MgCl2, pH 7.5), to 100pM to react them at room temperature for 1.5 hours. For measuring non-specific binding, non-labeled Y-RFRP-3 was further added to […]. Then, a membrane fraction was transferred to a unifilter GF/C (Perkin Elmer) by filtering the reaction solution using a cell harvester (Perkin Elmer), and this was washed with a cooled 50 mM Tris buffer (pH 7.5) five times. The filter was dried, Microsinti (Packard) was added to the filter, and radioactivity was measured with Topcount (Packard).
A binding inhibiting rate (IC50 value) of a test compound is shown in [Table 1].

The nature of experiment [1]: Blood glucose concentration after intravenous administration of RFRP-1 to rat under no anesthesia. The class given is in vivo, Wistar male rat. As to conditions: 10 nmol/kg, 5 minutes and 15 minutes after administration, compared with physiological saline group (Fig. 1). How it is done:
(§1) A value indicates mean ± […] (mean ± SE) (n = 4). • Fig. 4 indicates a ratio of freezing in cued fear conditioning when RFRP-1 (-◆-) and a physiological saline (-○-) are administered in a ventricle. An ordinate axis indicates freezing (%) of one day and two day after administration, respectively, expressed by mean ± standard error.
Blood glucose concentration increasing activity of RFRP
As RFRP, human RFRP-1 (37 amino acids) consisting of an amino acid sequence of 56th (Ser) to 92nd (Phe) of an amino acid sequence represented by SEQ ID No.: 3. Hereinafter, this peptide is abbreviated as RFRP-1.
In order to study influence of peripheral administration of RFRP-1 on a blood glucose concentration, operation for collecting blood under free moving was performed. A mature Wistar male rat (weight 310 to 350 g at operation) was anesthetized with 50 mg/kg of pentobarbital by intraperitoneal administration. The rat was fixed on an anatomic pad in a supine position, and a left jugular vein was exposed. […]
Overnight after operation, 300 µl of blood was collected using a tuberculin injection syringe having a dose of 1 ml and a 25 gauge injection needle (both Telmo) before administration of RFRP-1. […] A blood glucose concentration was measured using Fuji Drichem 3500 (FUJIFILM).

Experiment [2] can be described thus: Blood glucagon and insulin concentration after intravenous administration of RFRP-1 to rat. The class given is in vivo, Wistar male rat. The note with it: for blood glucagon concentration: intravenous, compared with physiological saline group (Fig. 2). Here is the method:
as §1
Pancreatic glucagon secretion promoting activity of RFRP
In order to study mechanism of blood glucose concentration increasing activity of RFRP-1, influence of RFRP-1 on a blood concentration of glucagon and insulin which are known as a hormone imparting a variation to a blood glucose concentration was studied. A mature Wistar male rat (weight 310 to 350 g at operation) was operated for collecting blood under free moving. Overnight after operation, 300 µl of a blood was collected using a tuberculin injection syringe having a dose of 1 ml and a 25 gauge injection needle (both Telmo) before administration of RFRP-1. In order to prevent blood coagulation, 3 µl of a 300 KIU/ml aprotinin solution containing 3 mg/ml EDTA had been placed into an injection syringe in advance. An Otsuka physiological saline or RFRP-1 dissolved in a physiological saline (80 nmol/mL) was intravenously administered through a tube at 1 mL/Kg. After 1, 3, 5 and 15 minutes from initiation of intravenous administration, each 300 µL of blood was collected from a jugular vein. The collected blood was centrifuged (13,000 rpm, 5 minutes) using a minor amount high speed cooling centrifuge (MR-150, Tommy Seiko), and the supernatant (plasma) was recovered.

Experiment [3] in a line: Cued fear conditioning (freezing) after ventricle administration of RFRP-1. As to conditions: rat, 3 nmol into a ventricle, on 2 day (48 hours after training); saline group 46.5% (Fig. 4). The class given is in vivo, Wistar male rat. How it is done:
as §1
Amnesia promoting activity of RFRP
Since an RFRP nerve is projected on amygdaloid complex, in order to study involvement of RFRP in amygdaloid complex-dependent memory•learning ability, influence under cued fear conditioning due to ventricle administration of RFRP-1 was studied. A mature Wistar male rat (weight 280 to 320 g at operation) was anesthetized with 50 mg/kg of pentobarbital by intraperitoneal administration, and a rat was fixed in a brain localization apparatus. A tooth cutting bar was set lower by 3.3 mm from an interoralline. A cranial bone was exposed, and a hole was opened in a bone using a dental drill in order to embed a guide cannulae AG-12 (internal diameter 0.4 mm, external diameter 0.5 mm, Eicom) in a ventricle. In addition, an anchor screw was embedded in four places at a periphery thereof. A stainless guide cannulae AG-12 was inserted so that its tip was positioned at an upper part of a side ventricle. […]

No end group written: not given here.

In general, IC50 refers to the midpoint of a concentration-inhibition curve. Take “tert-Butyl 7-bromo-4-hydroxy-2-neopentyl-1-oxo-1,2-dihydroisoquinoline-3-carboxylate [Example 10]”: the IC50 in the experiment on human-type OT7T022 is below 1000 nM.
For the substance “RFRP-1 (MPHSFANLPLRF; not fully specified; ends and bridges not checked; UniProt Q9HCQ7 81-92, looked up)”, the blood glucose concentration entry in experiment [1] is on record as “significant (p<0.05, n = 4) activity of increasing a blood glucose concentration”. The blood insulin concentration result in experiment [2] (intravenous (Fig. 3)) is reported as “a variation due to administration of RFRP-1 was not recognized”. The blood glucagon concentration result in experiment [2] (5 minutes after administration) was “significant (p<0.01) increase was continued”; in experiment [2] (two minutes after administration), “significant (p<0.01) increase in a blood glucagon concentration”. In experiment [3], this substance gave a rate of freezing of 35.5%.

Values taken from patent EP1604983A1, “RECEPTOR ANTAGONIST” (Takeda Pharmaceutical Company Limited, priority 2003, dated 2004).
